Reference: patent US12679820B2, “Cocrystals, pharmaceutical compositions thereof, and methods of treatment involving same” (Servier Pharmaceuticals LLC, priority 2017, dated 2026)
Where two headings read alike, the source gives them in different places. Values belong to the molecule of their own block, whether it stands above or below them.

Tests used:
[1] = Pharmacokinetics of Compound 1 solid forms in plasma following single PO administration (IV bolus reference) in male Sprague Dawley rats; format: in vivo; conditions: for AUCinf: oral gavage 10 mg/kg (as free Compound 1); for AUCinf / AUC(0-inf) / bioavailability: plasma; for AUCinf / Absolute % F: 10 mg/kg; for Absolute % F: oral gavage 10 mg/kg; for AUC(0-inf) / bioavailability: male, rat; for bioavailability: read-out: Absolute % F
Description: Study Design. Twelve (12) male Sprague Dawley rats (purchased from SLAC Laboratory Animal Co. LTD were randomized into four groups (3 animals per group). The animals were fasted overnight, the forms of Compound 1 shown in Table 24 were administered by oral gavage, and the animals were fed 4 hours post-dose. Each form of Compound 1 was administered as a suspension in water containing 0.5% microcrystalline cellulose and 0.1% Tween 80. The Dose Levels and Dose Concentrations shown in Table 24 are based on the corresponding amount of free Compound 1.
Blood Collection. Blood was serially collected from each animal 0.083 hr, 0.25 hr, 0.5 hr, 1 hr, 2 hr, 4 hr, 8 hr, 24 hr, 48 hr, and 72 hrs post-dose. For each collection, the animal was restrained manually, and approximately 150 μL of blood sample was collected via the tail vein into K2EDTA tubes. The blood samples were put on ice and centrifuged at 2000 g for 5 min to obtain plasma. Plasma samples were stored at approximately −70° C. until analysis.
To enable the calculation of oral bioavailability, Compound 1 was dissolved in a vehicle containing 10% N-Methyl-2-pyrrolidone (NMP), 10% Solutol HS 15, and 80% saline and administered at 1 mg/kg as intravenous (IV) bolus dose to a separate group of male Sprague-Dawley rats, and blood samples were collected at similar time points to those shown above. Further, plasma samples were obtained from the collected blood samples and stored at approximately −70° C. until analysis.
Further, the amorphous solid dispersion of Compound 1, as described in Example 23, was suspended in an aqueous vehicle containing 0.5% methyl cellulose (MC) and 0.2% Tween80 at 0.2 mg/mL concentration and dosed at 1 mg/kg as a single oral dose to a separate group of male Sprague-Dawley rats after an overnight fasting. Blood samples were collected at similar time points to those shown above. Further, plasma was harvested and stored at approximately −70° C. until analysis.
Sample Preparation and Analysis. The concentration of Compound 1 in the plasma samples was determined by LC-MS/MS analysis.
A 20 μL aliquot of each sample was diluted with 200 μL of acetonitrile containing dexamethasone as an internal standard (40 ng/mL). The resulting mixture was vortexed for 2 min and centrifuged at 5800 rpm for 10 min. A 2 μL sample was injected into LC-MS/MS.
Results. Historical data for IV administration of Compound 1 and administration of Compound 1 as a spray dried dispersion are also provided in Table 26. The absolute bioavailability of each form of Compound 1 was determined by dividing the AUCinf of the form in question by the AUCinf obtained by IV administration of Compound 1 and correcting for differences in dose. The measured absolute bioavailability of the citrate and maleate cocrystals, as reported in Table 26, was higher than the measured bioavailability of the other forms of Compound 1.

[2] = Hygroscopicity by Dynamic Vapor Sorption (DVS) analysis; format: physicochemical; conditions: for water uptake at 80% relative humidity / hygroscopicity: DVS at 25° C.; for water uptake at 80% relative humidity: range 0-95% relative humidity; for form change after DVS analysis (XRPD of the remaining material): XRPD after DVS at 25° C., 0-95% relative humidity
Description: Dynamic Vapor Sorption (DVS) Analysis. DVS was measured via a SMS (Surface Measurement Systems) DVS Intrinsic. The relative humidity at 25° C. were calibrated against deliquescence point of LiCl, Mg(NO3)2 and KCl. [table] The hygroscopicity of the cocrystal was determined by DVS analysis at 25° C., over a range of 0-95% relative humidity. […]

[3] = tested on: mutant IDH2; conditions: biochemical and cellular assays; cited from earlier work
[4] = tested on: mutant IDH1; conditions: biochemical and cellular assays; cited from earlier work
[5] = male Sprague Dawley rats, fasted
[6] = male Sprague Dawley rats, vs IV AUCinf, dose-corrected
[7] = listed as Maleic Acid Cocrystal Type A
[8] = listed as Citric Acid Cocrystal Type A

Structure (SMILES): C[C@@H](Nc1nc(N[C@H](C)C(F)(F)F)nc(-c2cccc(Cl)n2)n1)C(F)(F)F [Free Form A]
AUCinf [1, 5]: 30698 ng·h/mL
Absolute % F [1, 6]: 63.9%

Structure (SMILES): C[C@@H](Nc1nc(N[C@H](C)C(F)(F)F)nc(-c2cccc(Cl)n2)n1)C(F)(F)F [Citrate Cocrystal Type A]
AUC(0-inf) ([1]; Sprague Dawley, po, 11.7 mg/kg, oral gavage 11.7 mg/kg (as free Compound 1), male Sprague Dawley rats, fasted): 58200 ng·h/mL
bioavailability ([1]; Sprague Dawley, po, 11.7 mg/kg, oral gavage 11.7 mg/kg, male Sprague Dawley rats, vs IV AUCinf, dose-corrected): 104%
bioavailability (in words) ([1]; summary statement referring to the Examples): favorable bioavailability
water uptake at 80% relative humidity [2, 8]: 0.5%
hygroscopicity [2, 8]: slightly hygroscopic
hygroscopicity ([2]; listed as citric acid cocrystal type A): low hygroscopicity
form change after DVS analysis (XRPD of the remaining material) [2]: no form change had occurred

Structure (SMILES): C[C@@H](Nc1nc(N[C@H](C)C(F)(F)F)nc(-c2cccc(Cl)n2)n1)C(F)(F)F [Compound 1, 6-(6-chloropyridin-2-yl)-N^2,N^4-bis((R)-1,1,1-trifluoropropan-2-yl)-1,3,5-triazine-2,4-diamine]
AUC(0-inf) ([1]; Sprague-Dawley, iv, 1 mg/kg, IV bolus 1 mg/kg, male Sprague-Dawley rats, historical data): 4800 ng·h/mL
bioavailability ([1]; Sprague-Dawley, iv, 1 mg/kg, IV bolus 1 mg/kg, male Sprague-Dawley rats, historical data (reference)): 100%
inhibitor of mutant IDH2 protein [3]: inhibitor
inhibitor of mutant IDH1 protein [4]: inhibitor

Second part, the molecule after the results:

AUCinf [1, 5]: 10846 ng·h/mL
Absolute % F [1, 6]: 22.6%
Structure (SMILES): C[C@@H](Nc1nc(N[C@H](C)C(F)(F)F)nc(-c2cccc(Cl)n2)n1)C(F)(F)F [Free Form C]

AUCinf [1, 5]: 38625 ng·h/mL
Absolute % F [1, 6]: 80.4%
water uptake at 80% relative humidity [2, 7]: 2.0%
hygroscopicity [2, 7]: slightly hygroscopic
form change after DVS analysis (XRPD of the remaining material) [2]: no form change had occurred
Structure (SMILES): C[C@@H](Nc1nc(N[C@H](C)C(F)(F)F)nc(-c2cccc(Cl)n2)n1)C(F)(F)F [Maleate Cocrystal Type A]
